Measurements as given in publication PMC12080252, “Daphnia magna as an Alternative Model for (Simultaneous) Bioaccumulation and Chronic Toxicity Assessment—Controlled Exposure Study Indicates High Hazard of Heterocyclic PAHs” (Environmental Science & Technology, 2025).
Several values for one entry are separate records, joined by “and”; a condition that tells them apart may be missing. Equal values may be shown once.

How the values were obtained:
[1] = cited from earlier work
Daphnia magna = experiment: Chronic reproduction toxicity test (OECD 211) with passive dosing; format: in vivo; conditions: for EC10: 21-day reproduction inhibition; for % inhibition, avr.: average of vessels; for % inhibition (of reproduction, per vessel): relative to controls; for wet weight of parent daphnids, change relative to control: end of 21-d exposure
Experimental: (§1) Chronic toxicity tests with D. magna were performed according to the OECD guideline 211^2 using the passive dosing method. Two days before the tests, the exposure solution was predosed by shaking 10 PDMS disks loaded with the test substance in 1 L of medium for 48 h. Each test vessel (250 mL) was first flushed with the dosed solution to equilibrate the vessel walls, then filled with 100 mL of test solution, one PDMS disk, and one juvenile D. magna (<24 h old). The tests were conducted in loosely closed bottles to allow for adequate gas exchange and limit evaporation. The exposure medium was changed three times per week, and the animals were fed D. subspicatus daily (0.2 mg C/Daphnia/day). The number of offspring per adult and behavioral or physiological effects (e.g., size, movement, unhatched eggs) were recorded daily (except weekends). Dissolved oxygen, pH and temperature were also measured each week.
(§2) Tests were performed under static conditions (20 °C, 16:8 h light/dark cycle, 1 klux). Each compound was tested in 10 replicates for controls and limit tests (a single high concentration exposure to screen for significant toxic effects) and with 6 or 10 replicates for concentration–response tests. Reuse of silicone disks was included in some experiments (Table S3). Reproductive inhibition was assessed by counting offspring over 21 days. The number of offspring per mother in treatment groups was compared to controls, and the percent inhibition per replicate was used to generate concentration–response curves. A minimum of five concentrations per compound were tested to determine EC10, EC20, and EC50 values. For each test, three sets of polymers were rotated between loading, dosing, and exposure stages (Figure S2). Initial (before animal and food addition) and final (after 2–3 days of exposure, just before the medium change) water concentrations (CW) were monitored, with the latter collected after centrifugation to remove biomass (e.g., algae, carapaces, or feces).
(§3) All data are presented as average ± standard deviation. Student’s t test was used to analyze significance (p-value >0.05 considered insignificant). Concentration–response curve parameters (effective concentrations and confidence limits) and plots were generated using GraphPad Prism software (V6.01, GraphPad Software, La Jolla, CA, USA). The exposure concentrations were log10 transformed before fitting. Then a four parameters logistic model with variable slope was used to obtain EC10, EC20 and EC50 (see section S5 in SI file for details). Effective chemical activities (EA50) for chronic toxicity were calculated as follows: [drawing 1] 1 […]
(§4) S5. Concentration-response curve (CRC) fitting procedure
(§5) GraphPad Prism version 9.5.1 was used to fit CRC and obtain EC10, EC20, EC50 values and their confidence intervals. The exposure concentrations were log10 transformed before fitting. Then a four parameters logistic model with variable slope was used that describes the response as a function of following four parameters: minimum response (the Bottom), maximum response (the Top), the concentration required to cause a response half-way between the minimum and maximum (the EC50) and the slope of the curve […]
(§6) concentration. The Top was constrained to 100, the Bottom was constrained to 0, the HillSlope was not […]
(§7) !"# %& = !"# %&* − , × !"# 3 * 4
(§8) (, + ,((!"# %&'(<=)×-.!!/!"01)
(§9) Figure S7 Concentration-response curves of four NSO-PAHs based on reproductive inhibition during 21-day chronic toxicity tests with D. magna.
(§10) (1 picture or pasted object on this page, not shown here)

[2] = as above; format: in vivo, Daphnia magna; conditions: Daphnia magna, in vivo, other: waterborne exposure by passive dosing from PDMS disks, 21-day test, read-out: % offspring mortality of total offspring
Experimental: as §1, §2, §3, §4, §5, §6, §7, §8, §9, §10

D. magna = experiment: PNEC and risk quotient estimation; parameters: species or system Daphnia magna; conditions: environmental concentration of surrogate (CRB, DBF, DBT) / PNEC
Description: To ensure a precautionary approach, an AF of 100 was applied, which accounts for interspecies variability and uncertainties in extrapolating laboratory findings to real-world conditions.
Environmental concentration (EC) data are obtained from A CRB, B DBF, and C DBT by choosing the highest
concentration that remains below the solubility limit of the respective NSO-PAH, as described in Reference 24.

[3] = Test 5-BCRB, avr. medium concentration 68.16 µg/L, 21 days
[4] = Test 5-BCRB, avr. medium concentration 68.16 µg/L, 21 days, one value per vessel

c1ccc2c(c1)ccc1[nH]c3ccccc3c12 [BCRB, 7H-benzo[c]carbazole]
SW (water solubility) ([1]; measured in previous work): 0.80 µg/mL | log KOW ([1]; n-octanol-water partition coefficient): 5.22 | log KOC ([1]; organic carbon-water partition coefficient): 4.84 | EC10 (Daphnia magna; 97.5-2.5% confidence interval in brackets): 15.0 (8.6-24.3) μg L^-1 | EC10 (Daphnia magna; confidence interval in brackets): 69.2 (39.7-111.8) nmol L^-1 | growth of parent D. magna (wet weight) (Daphnia magna; 21-day test, p-value <0.05): significantly inhibited D. magna growth | LOEC (lowest observed effect concentration, reproduction inhibition) (Daphnia magna; 21 days, p-value <0.05 vs controls): 9.8 μg L^–1 | %offspring mortality (Daphnia magna; BCRB 3.99 µg/L, 21 days): 3.29% | % inhibition, avr. (Daphnia magna; BCRB 3.99 µg/L, 21 days): 0.7% | #average live offspring (Daphnia magna; BCRB 3.99 µg/L, 21 days, per mother): 83 | #total live offspring (Daphnia magna; BCRB 3.99 µg/L, 21 days, sum of all vessels): 499 | %offspring mortality (Daphnia magna; BCRB 9.55 µg/L, 21 days): 4.04% | % inhibition, avr. (Daphnia magna; BCRB 9.55 µg/L, 21 days): 15.0% | #average live offspring (Daphnia magna; BCRB 9.55 µg/L, 21 days, per mother): 71 | % inhibition (of reproduction, per vessel) (Daphnia magna; BCRB 9.55 µg/L, 21 days, single vessels 1-6): 6.9% | #total live offspring (Daphnia magna; BCRB 9.55 µg/L, 21 days, sum of all vessels): 427 | %offspring mortality (Daphnia magna; BCRB 21.94 µg/L, 21 days): 2.91% | % inhibition, avr. (Daphnia magna; BCRB 21.94 µg/L, 21 days): 20.4% | #average live offspring (Daphnia magna; BCRB 21.94 µg/L, 21 days, per mother): 67 | #total live offspring (Daphnia magna; BCRB 21.94 µg/L, 21 days, sum of all vessels): 400 | %offspring mortality (Daphnia magna; BCRB 43.46 µg/L, 21 days): 5.62% | % inhibition, avr. (Daphnia magna; BCRB 43.46 µg/L, 21 days): 39.8% | #average live offspring (Daphnia magna; BCRB 43.46 µg/L, 21 days, per mother): 50 | % inhibition (of reproduction, per vessel) (Daphnia magna; BCRB 43.46 µg/L, 21 days, single vessels 2-6): 39.1% and 54.6% and 28.4% and 37.9% | #total live offspring (Daphnia magna; BCRB 43.46 µg/L, 21 days, sum of all vessels): 252 | Survival of the mother animal (Daphnia magna; BCRB 43.46 µg/L, vessel 1, day 5): dead | Total #offspring per mother (live, per vessel) (Daphnia magna; BCRB avr. medium concentration 3.99 µg/L (methanol for dosing 0.063 g/L), 21 days, single vessels 1-6): 104 and 86 and 87 and 79 and 68 and 75 | Total #offspring per mother (live, per vessel) (Daphnia magna; BCRB avr. medium concentration 9.55 µg/L (methanol for dosing 0.125 g/L), 21 days, single vessels 1-6): 68 and 63 and 78 and 79 and 61 | Total #offspring per mother (live, per vessel) (Daphnia magna; BCRB avr. medium concentration 21.94 µg/L (methanol for dosing 0.25 g/L), 21 days, single vessels 1-6): 67 and 73 and 77 and 64 and 63 and 56 | Total #offspring per mother (live, per vessel) (Daphnia magna; BCRB avr. medium concentration 43.46 µg/L (methanol for dosing 0.5 g/L), 21 days, single vessels 2-6): 51 and 38 and 60 and 52 | EA50 (effective chemical activity) (Daphnia magna; EC50/subcooled liquid solubility, eq 1): 0.004 unitless | %offspring mortality (Daphnia magna; [3]): 32.43% | #total live offspring (Daphnia magna; Test 5-BCRB, avr. medium concentration 68.16 µg/L, 21 days, all vessels): 75 | % inhibition, avr. (Daphnia magna; [3]): 82.1% | % inhibition (of reproduction, per replicate vessel) (Daphnia magna; [4]): 82.1% and 86.9% and 83.3% and 74.9% | Total #dead offspring per mother (per replicate vessel) (Daphnia magna; [4]): 9 and 2 and 8 | #average live offspring (Daphnia magna; Test 5-BCRB, avr. medium concentration 68.16 µg/L, 21 days, per surviving mother): 15 | Total #offspring per mother (per replicate vessel) (Daphnia magna; Test 5-BCRB, avr. medium concentration 68.16 µg/L, methanol dosing conc. 1 g/L, 21 days, one value per vessel): 15 and 11 and 14 and 21 | Mother survival (parent mortality) (Daphnia magna; Test 5-BCRB, avr. medium concentration 68.16 µg/L, vessel 3, day 5): dead | CTLBB (critical target lipid body burden) (Daphnia magna; derived from chronic EC10 using eq 3): 12.6 μmol g^-1 octanol | wet weight of parent daphnids, change relative to control (Daphnia magna; 4.1 µg/L (Fig. S9)): +17% | wet weight of parent daphnids, change relative to control (Daphnia magna; 9.8 µg/L (Fig. S9)): -14% | wet weight of parent daphnids, change relative to control (Daphnia magna; 21.8 µg/L (Fig. S9)): -15% | wet weight of parent daphnids, change relative to control (Daphnia magna; 44.6 µg/L (Fig. S9)): -34% | wet weight of parent daphnids, change relative to control (Daphnia magna; 68.2 µg/L (Fig. S9)): -77% | swimming behavior (Daphnia magna; two highest exposure concentrations, 22 and 68 μg L^–1): induced locomotor changes | mortality at 21 days, 4.1 µg/L ([2]; 4.1 µg/L (Fig. S8)): 3.3% | mortality at 21 days, 9.8 µg/L ([2]; 9.8 µg/L (Fig. S8)): 4% | mortality at 21 days, 21.8 µg/L ([2]; 21.8 µg/L (Fig. S8)): 2.9% | mortality at 21 days, 44.6 µg/L ([2]; 44.6 µg/L (Fig. S8)): 5.6% | mortality at 21 days, 68.2 µg/L ([2]; 68.2 µg/L (Fig. S8)): 32.4% | RQ (EC/PNEC) (D. magna): 4000
